According to EPA's CvTdb concentration-time database (doi:10.1093/toxsci/kfy020):

Tests used:
[1] = tested on: rat; assay: concentration in plasma after dosing
[2] = tested on: rat; assay: concentration in brain after dosing; details: dosed: Imipramine, 10.0000000000 mg/kg, iv, male, Wistar

COCCc1ccc(OC[C@H](O)CNC(C)C)cc1 [R-Metoprolol]
[1], dosed: Metoprolol, 15.0000000000 mg/kg, oral, male, Wistar
Details	concentration in plasma [ng/mL]
1 h	24.4
1.5 h	10.1
2 h	12.2
2 min	199
2.5 h	4.49
3 h	2.07
4 h	1.05
4 min	380
8 min	84.6
10 min	108
20 min	79.3
40 min	53.9
50 min	35.4

CNC(=O)Oc1cccc(N=CN(C)C)c1.Cl [Formetanate hydrochloride]
concentration in plasma [ng/mL], [1], dosed: Formetanate hydrochloride, male, Sprague-Dawley
Details	0.25 h	1 h	2 h	24 h	48 h	72 h
1.0000000000 mg/kg, iv	–	–	–	7.9	2.2	–
5.0000000000 mg/kg, oral	262	53.2	9.57	1.64	12.4	5.13

CCOc1ccc(NC(C)=O)cc1 [Phenacetin]
[1], dosed: Phenacetin, 23.0000000000 mg/kg, iv, male, Sprague-Dawley
Details	concentration in plasma [ng/mL]
0.25 h	18900
0.5 h	16100
0.75 h	12200
1 h	9020
1.5 h	6630
2 h	4320
2.5 min	26300
5 min	24300
10 min	21800

CCCC(CCC)C(=O)O [Valproic acid]
concentration in plasma [ng/mL], [1], dosed: Valproic acid, iv, Wistar
Details	10.0000000000 mg/kg	50.0000000000 mg/kg	100.0000000000 mg/kg
0.017 h	69900	290000	511000
0.05 h	49300	256000	427000
0.083 h	36300	228000	369000
0.167 h	32000	199000	329000
0.25 h	25700	168000	290000
0.5 h	14700	120000	250000
0.75 h	9080	72500	218000
1 h	5100	42900	171000
2 h	1200	5190	43700
3 h	494	2040	4030
4 h	298	905	1600

concentration in plasma [ng/mL], [1], dosed: Valproic acid, oral, female, Sprague-Dawley
Details	0.25 h	0.5 h	0.75 h	1 h	2 h	4 h
200.0000000000 mg/kg	269000	333000	246000	182000	95600	23000
600.0000000000 mg/kg	558000	841000	755000	691000	643000	294000

CCCCNC(=O)NS(=O)(=O)c1ccc(C)cc1 [Tolbutamide]
[1], dosed: Tolbutamide, male
Details	concentration in plasma [ng/mL]
0.25 h, 20.0000000000 mg/kg, oral, Wistar	79100
0.5 h, 20.0000000000 mg/kg, oral, Wistar	84700
1 h, 10.0000000000 mg/kg, iv, Sprague-Dawley	43400
1 h, 20.0000000000 mg/kg, oral, Wistar	85900
1.5 h, 10.0000000000 mg/kg, iv, Sprague-Dawley	38400
2 h, 10.0000000000 mg/kg, iv, Sprague-Dawley	33400
2 h, 20.0000000000 mg/kg, oral, Wistar	76400
3 h, 10.0000000000 mg/kg, iv, Sprague-Dawley	29400
4 h, 10.0000000000 mg/kg, iv, Sprague-Dawley	25300
4 h, 20.0000000000 mg/kg, oral, Wistar	52900
5 h, 10.0000000000 mg/kg, iv, Sprague-Dawley	23100
6 h, 10.0000000000 mg/kg, iv, Sprague-Dawley	19500
6 h, 20.0000000000 mg/kg, oral, Wistar	35800
8 h, 20.0000000000 mg/kg, oral, Wistar	26600
10 min, 10.0000000000 mg/kg, iv, Sprague-Dawley	64200
12 h, 20.0000000000 mg/kg, oral, Wistar	17900
20 min, 10.0000000000 mg/kg, iv, Sprague-Dawley	57100
40 min, 10.0000000000 mg/kg, iv, Sprague-Dawley	49700

O=C1NC(=O)C(c2ccccc2)(c2ccccc2)N1 [Phenytoin]
[1], dosed: Phenytoin, 25.0000000000 mg/kg, iv, duration: 1 min, male, Sprague-Dawley
Details	concentration in plasma [ng/mL]
0.25 h	21500
0.5 h	15800
0.75 h	12100
1 h	8790
1 min	461000
1.5 h	4630
2 h	2480
3 h	1500
4 h	831

[1], dosed: Phenytoin, male
Details	concentration in plasma [ng/mL]
0.25 h, 25.0000000000 mg/kg, oral, Sprague-Dawley	4120
0.25 h, 40.0000000000 mg/kg, iv, Wistar-derived	26900
0.5 h, 25.0000000000 mg/kg, oral, Sprague-Dawley	3370
0.5 h, 40.0000000000 mg/kg, iv, Wistar-derived	19300
0.75 h, 25.0000000000 mg/kg, oral, Sprague-Dawley	2620
1 h, 25.0000000000 mg/kg, oral, Sprague-Dawley	1820
1 h, 40.0000000000 mg/kg, iv, Wistar-derived	14200
1.5 h, 25.0000000000 mg/kg, oral, Sprague-Dawley	1200
1.5 h, 40.0000000000 mg/kg, iv, Wistar-derived	11700
2 h, 25.0000000000 mg/kg, oral, Sprague-Dawley	885
2 h, 40.0000000000 mg/kg, iv, Wistar-derived	8970
2.5 h, 40.0000000000 mg/kg, iv, Wistar-derived	7190
3 h, 25.0000000000 mg/kg, oral, Sprague-Dawley	1170
3 h, 40.0000000000 mg/kg, iv, Wistar-derived	4790
3.5 h, 40.0000000000 mg/kg, iv, Wistar-derived	3020
4 h, 25.0000000000 mg/kg, oral, Sprague-Dawley	1120
4 h, 40.0000000000 mg/kg, iv, Wistar-derived	2270
5 min, 40.0000000000 mg/kg, iv, Wistar-derived	54300
6 h, 25.0000000000 mg/kg, oral, Sprague-Dawley	771
8 h, 25.0000000000 mg/kg, oral, Sprague-Dawley	759
10 h, 25.0000000000 mg/kg, oral, Sprague-Dawley	865
10 min, 40.0000000000 mg/kg, iv, Wistar-derived	33800
12 h, 25.0000000000 mg/kg, oral, Sprague-Dawley	495
20 min, 40.0000000000 mg/kg, iv, Wistar-derived	23200
40 min, 40.0000000000 mg/kg, iv, Wistar-derived	16800

CCOP(=S)(OCC)Oc1nc(Cl)c(Cl)cc1Cl [Chlorpyrifos]
concentration in plasma [ng/mL], [1], dosed: Chlorpyrifos, oral, male, F344
Details	1 h	3 h	5 min	6 h	12 h	20 min
5.0000000000 mg/kg	1.39	30	–	13.1	1.81	–
10.0000000000 mg/kg	5.05	109	–	18.7	1.76	–
50.0000000000 mg/kg	51	326	0.559	79.3	15.5	1.42
100.0000000000 mg/kg	246	759	0.665	202	278	7.47

COc1ccccc1Oc1c(NS(=O)(=O)c2ccc(C(C)(C)C)cc2)nc(-c2ncccn2)nc1OCCO [Bosentan]
concentration in plasma [ng/mL], [1], dosed: Bosentan, male, Wistar
Details	0.5 h	1 h	2 h	2 min	3 h	4 h	6 h	8 h	10 min	20 min
1.0000000000 mg/kg, iv	168	128	78.9	1950	61.3	38.3	18.3	10.5	323	212
10.0000000000 mg/kg, oral	–	622	608	–	–	360	157	60	–	–

COC(=O)Nc1nc2ccccc2[nH]1 [Carbendazim]
[1], dosed: Carbendazim, 1000.0000000000 mg/kg, oral, male, Sprague-Dawley
Details	concentration in plasma [ng/mL]
0.25 h	10000
0.5 h	11600
1 h	14700
2 h	20200
4 h	14100
8 h	4590
20 h	49.4

COCCc1ccc(OC[C@@H](O)CNC(C)C)cc1 [S-Metoprolol]
[1], dosed: Metoprolol, 15.0000000000 mg/kg, oral, male, Wistar
Details	concentration in plasma [ng/mL]
0.1 h	93.2
0.5 h	53
1 h	13.9
1.5 h	8.15
2 h	6.61
2 min	219
2.5 h	2.14
3 h	1.45
4 min	425
8 min	79.3
10 min	68.6
20 min	54.7
40 min	38.4
50 min	24.4

CN(C)CCCN1c2ccccc2CCc2ccccc21 [Imipramine]
[2]
Details	concentration in brain [µg/g]
1 h	8.5
2 h	3.6
4 h	1.61
5 min	14.7
10 min	15.1

concentration in plasma [ng/mL], [1], dosed: Imipramine, male
Details	0.1287 h	0.25 h	0.5 h	1 h	2 h	4 h	8 h	16 h	24 h	208 s
10.0000000000 mg/kg, iv, Wistar	1620	–	853	719	238	46.3	–	–	–	2340
50.0000000000 mg/kg, oral, Sprague-Dawley	–	99.1	75.7	120	73.9	58.7	38.6	33.5	28.3	–

CNCCCN1c2ccccc2CCc2ccccc21 [desmethylimipramine]
[2]
Details	concentration in brain [µg/g]
0.5 h	8.62
1 h	1.08
2 h	0.86
4 h	0.72
5 min	1.44
6 h	0.69
10 min	1.8

[1], dosed: Imipramine, 10.0000000000 mg/kg, iv, male, Wistar
Details	concentration in plasma [ng/mL]
1 h	290
2 h	370
4 h	300
5 min	440
10 min	570

Cc1ncc2n1-c1ccc(Cl)cc1C(c1ccccc1F)=NC2 [Midazolam]
concentration in plasma [ng/mL], [1], dosed: Midazolam, male, Sprague-Dawley
Details	0.25 h	0.5 h	1 h	1.5 h	2 h	3 h	4 h	5 min	10 min
5.0000000000 mg/kg, iv	964	570	255	125	62.5	16.1	1	2210	1080
15.0000000000 mg/kg, oral	134	163	123	113	88.5	37.7	19.8	12.9	71.1

COc1ccc([C@@H]2Sc3ccccc3N(CCN(C)C)C(=O)[C@@H]2OC(C)=O)cc1 [Diltiazem]
concentration in plasma [ng/mL], [1], dosed: Diltiazem, 20.0000000000 mg/kg, male, Sprague-Dawley
Details	0.16 h	0.25 h	1 h	1.5 h	2 h	3 h	4 h	6 h	8 h	10 h
iv	7870	5050	2530	1510	956	636	202	69.3	78	22.5
oral	1220	488	248	189	271	160	52.8	19.4	–	–
